“Also recorded” adds a separate entry of the source.
Tested on: fetal dopaminergic neurons in culture
Experiment: Neuroprotection and differentiation of dopaminergic (TH+) neurons in primary culture of rat embryo mesencephalon (spontaneous degeneration model)
Format: cell-based
Set-up: key to Diff (qualitative assessment of neuron differentiation): + indicates that the neurons have a morphology similar to that of the control; ++ and +++ indicate the presence of neurons whose extensions are longer and more numerous than the control neurons; ++ and +++ indicate the presence of neurons whose extensions are longer and more numerous than the control neurons; − indicates that the neurons have neurites that are shorter and less numerous than the control neurons
Experimental: Dissection consists in extracting the embryos from the uterus of a rat at fifteen days of gestation. The brain of each embryo is then dissected under a binocular magnifier in order to extract the ventral mesencephalon.
The mesencephalons are gathered in a flask containing 2 ml of L15 medium and then mechanically dissociated (30 times), and then 5 ml of L15 medium are added. The suspension is left to rest for 8 minutes. 5 ml of the supernatant are recovered in a new flask and the cells are dissociated again (30 times). 5 ml of L15 are again added and the suspension is left to rest for 8 minutes. 5 ml of supernatant are added to the preceding. The cells thus extracted are then centrifuged for 5 minutes at 1,000 rpm. The cell pellet is taken up in Neurobasal medium supplemented with 1% B27, 1% glutamine and 1% penicillin/streptomycin mixture. The cells are then inoculated at the appropriate dilution (0.6 embryo per well on a 24-well plate and 0.4 per well on a 48-well plate). The cultures are incubated at 37° C. in a humid atmosphere enriched with 5% CO2 in a 24- or 48-well plate.
After 24 hours, two-thirds of the medium of each well is replaced by new medium enriched with the compound of the invention to test at the appropriate dilution. The medium is replaced in the same way after 4 days of culture.
At 8 days of culture, the cells are fixed by a 4% formaldehyde solution and then washed three times with PBS. The cells then undergo several immunohistochemistry procedures: • anti-tyrosine hydroxylase (TH) visualized by a secondary antibody coupled to a fluorochrome that emits in the red spectrum (Cy3). • anti-MAP2 (MAP=microtubule-associated protein) (neuron marker) visualized by a secondary antibody coupled to a fluorochrome that emits in the green spectrum (alexa488). • DAPI (4′,6-diamidino-2-phenylindole), a nuclear marker that emits in the blue spectrum.
Neuroprotection is evaluated by counting TH positive neurons directly under the microscope or MAP2 positive on images, at 15 images per well, expressed as a percentage of the untreated control. The experiments include three wells per condition. Three independent experiments are carried out under these conditions. Total neurite length per cell calculated by the Neurite Outgrowth software by Explora Nova on 20 neurons photographed independently per well gives an indication of the state of maturation of the dopaminergic neurons.
The compounds of the invention were tested on a model of spontaneous degeneration of dopaminergic neurons in culture.
This model consists of culturing cells of the ventral mesencephalon of rat embryo. This part of the brain in culture contains dopaminergic neurons and other primarily GABAergic neurons. These cultures are also composed of glial cells, namely astrocytes, oligodendrocytes and microglia. This is a model of spontaneous degeneration of dopaminergic neurons which mimics certain aspects of Parkinson's disease.
The neuroprotective effect of the compounds of the invention was evaluated by counting dopaminergic neurons (TH^+) marked by tyrosine hydroxylase (TH) immunohistochemistry after 8 days of culture. Thus the compounds were evaluated at 1 nM, 10 nM, 100 nM and 1 μM and were compared with the activity of dibutyryl cyclic AMP (db-cAMP) used as the reference product.
In order to evaluate more quantitatively the activity of the compounds of the invention, neurite growth per cell was measured using the Neurite Outgrowth software developed by Explora Nova. A minimum of 60 neurons per condition were photographed and studied, and the results were then averaged and normalized by the number of neurons considered.

`C#CC(O)CCCCCCCCCCCCC#Cc1ccc2ccccc2n1` (centres unmarked) [Compound N3, 17-(quinolin-2-yl)heptadec-1,16-diyn-3-ol] was tested. Which “dose-response of effect on survival of dopaminergic neurons” value (1 nM, 10 nM, 100 nM and 1 μM, FIG. 2) did it give?
The value was “dose-dependent”.

And the “Diff (qualitative assessment of neuron differentiation)” value (100 nM, dopaminergic neurons in culture)?
The value was “+++”.

And the viability at 0.1 µM (Rattus norvegicus, Neuron, 192 h, 100 nM, survival of TH+ dopaminergic neurons after 8 days of culture, read-out: % Neurons relative to the control ±SEM)?
Its viability at 0.1 µM is 154 ± 4.1%.

And the “neuroprotective activity (percentage of survival of dopaminergic neurons), in words, versus reference product db-cAMP” value (dopaminergic neurons, 8 days of culture)?
Its value is “equal to or greater than that of the reference product; also recorded: the most active compound”.

And the “concentration of maximum effect on survival of dopaminergic neurons” value (dose-response curve, FIG. 2)?
Its value is 100 nM.

Reference: patent US8445511B2, “Quinoline or quinoxaline derivatives for treating neurodegenerative diseases” (Centre National de la Recherche Scientifique (SNRS), priority 2008, dated 2013)
